# Measurements as given in US20160375127A1, “Method of producing an inactivated lentivirus, especially HIV, vaccine, kit and method of use” (LABORATOIRE BIODIM, priority 2013, published 2016).
# “Also recorded” adds a separate entry of the source.
# Experiments:
# [1] = system: HIV-1 LAV; experiment: Infectivity of virions from treated HeLa-LAV cells on MT4 cells, cytopathic assay CellTiter-Glo; type: cell-based; settings: virus stock diluted up to 2000 times
# Text: (§1) In order to examine the infectivity of viruses produced in the presence of these various compounds, the supernatants were harvested, titrated for viral protein p24 release using the Alliance HIV-1 p24 Antigen ELISA (PerkinElmer, http://www.perkinelmer.com/) and titrated to measure the quantity of infectious particles per ml by infecting TZM-bl indicator cells (from the AIDS reagent program, NIH) expressing luciferase under a Tat-dependent promoter. Alternatively for titration of infectious particles, target cells for HIV-1 infection such as MT4 cells were used.
# (§2) Usually 1/2000 dilution of the virus stock is used to infect MT4 target cells. Productive HIV-1 infection is determined after 5 days using the CellTiter-Glo® luminescent reagent (Promega, France) to quantify MT4 cell viability. Alternatively, productive infection can be estimated by quantitation of p24 antigen as described in paragraph 2 above.
# [2] = system: HIV-1 LAV; experiment: Infectivity of virions from treated HeLa-LAV cells on TZM indicator cells, luciferase assay; type: cell-based
# Text: as §1
# as §1, with “2—Production of Viral particles in the presence of compounds. […] In” for “In”, “are” for “were”, “harvested, stored at −80° C. and” for “harvested,”, “cells” for “cells (from the AIDS reagent program, NIH)”, “are used as described above in 1a.” for “were used.”
# [3] = target: T1, HIV-1 integrase (Human immunodeficiency virus type 1 group M subtype B, UniProt P12497); experiment: Size exclusion chromatography of recombinant HIV-1 integrase on Superdex 200 PC 3.2/30; type: biochemical; settings: untreated IN elutes as dimer, 64 KD MW; 8 μM IN with 20 μM compound
# T1 construct: Superdex 200 16/600 PG column for IN full length; made in house
# Protocol: Multimerization of HIV-1 Integrase upon treatment with inactivating compounds was performed using size exclusion chromatography on a Superdex 200 PC 3.2/30 column (GE Healthcare), as described in the method section. Aldolase (158,000 MW), Conalbumin (75,000 MW), Carbonic Anhydrase (29,000 MW), and Ribonuclease A (13,700 MW) were used as protein markers for calibration.
# was performed on a Superdex 200 PC 3.2/30 column (GE Healthcare) using an AKTA chromatography system (GE Healthcare) at 0.04 mL/min at room temperature. 20 μL of sample was injected on the column previously equilibrated in Integrase buffer (50 mM HEPES pH 7.5 containing 1M NaCl, 7 mM CHAPS, 5 mM MgCl2, 10% glycerol). 1 μM Compound was added to the mobile phase in order to avoid integrase-inhibitor dissociation during the separation.
# [4] = system: HIV-1 LAV; experiment: p24 titration of virus harvested from treated HeLa-LAV producer cells; type: cell-based; settings: HeLa-LAV cells treated during virus production
# Text: as §1
# as §1, with “2—Production of Viral particles in the presence of compounds. […] In” for “In”, “are” for “were”, “harvested, stored at −80° C. and” for “harvested,”, “cells” for “cells (from the AIDS reagent program, NIH)”, “are used as described above in 1a.” for “were used.”
# [5] = system: HIV-1 Gag; experiment: Western blot of Gag maturation and CA p24 content in producer cell lysates and virions, anti-p24 antibody; type: cell-based; settings: HeLa-LAV cell lysates and defective virions
# [6] = system: HIV-1 NL4-3; experiment: Infectivity of NL4-3 virus from treated transfected 293T cells on MT4 cells, CellTiter-Glo; type: cell-based; settings: 293T transfection, compound 48 hours, supernatant diluted 2000 times, MT4 viability
# Protocol: FIG. 4: Infectivity of wt NL4-3 viruses harvested from 293T transfected cells after treatment with the indicated compounds and tested by infection of MT4 cells using the cytopathic assay CellTiter-Glo®.
# 2 hours after transfection indicated compounds were added during virus production for 48 hours at the indicated concentrations. […] Viruses released in cell supernatants were harvested and tested for virus production by p24 assay, and virus infectivity by infection of MT4 cells and cytophatic assay using CellTiter-Glo® (Promega) according manufacturer's instructions.
# 293T cells (2.2 10^6 cells) are transfected with plasmids harboring full length cloned HIV proviral DNA such as pNL4-3 or any other HIV proviral clone including autologous HIV molecular clones using DNA transfection reagent such as X-tremeGENE 9 reagent (Roche). Cells are washed 3 h later, trypsinized and diluted at 0.3 10^6 cells per ml. 5 10^5 cells in 1.6 ml fresh culture media are distributed into 6 wells plate and the volume is adjusted to 2 ml by adding 0.4 ml of media containing compounds and DMSO per well, or DMSO only as control. As reference compounds capable to fully inactivate HIV during virus production by producer cells, Protease inhibitors such as Indinavir or Saquinavir are used as additional controls. Final concentration for each compound, including reference protease inhibitor compounds, is kept equivalent to 5 times its EC50 concentration previously calculated into a multiple round assay as in (a) and DMSO is kept at 0.5% final concentration. Supernatants containing HIV virions are collected 48 h post-transfection and stored at −80° C. All Viral stocks are quantified for p24 antigen using the Alliance HIV-1 p24 Antigen ELISA (PerkinElmer, http://www.perkinelmer.com/) and titrated to measure the quantity of infectious particles per ml by infecting TZM-bl indicator cells.
# as §2, with “above. Full inactivation of the virus stock by compounds is estimated by results obtained in the presence of compound compared on the one hand to DMSO alone which indicates the 100% infectious virus stock (0% inactivation), and on the other hand to Protease inhibitor treatment which indicates the 100% virus stock inactivation.” for “above.”
# [7] = system: HIV-1 NL4-3; experiment: Check of inactivation: multiple-round infection assay of MT4 human cells during five days; type: cell-based; settings: virus produced with 1 μM compound
# Text: (§3) To do so, HIV-1 NL4-3 virus was produced upon 293T cell transfection using Opti-Mem® reagent (Life Technologies) according manufacturer's instructions. […] Cell supernatants containing virus were ultracentrifuged through sucrose cushion. Virus pellets were resuspended in cell culture medium, aliquoted and titrated for CA p24 amount using anti-p24 antibody (Innotest HIV antigen/mAB Immunogenetics/Ingen Ghent, Belgium or Alliance® HIV-I p24 ELISA kit PerkinElmer).
# [8] = system: HIV-1 NL4-3; experiment: Western blot of NL4-3 virus lysates with anti-p24, anti-RT and anti-IN antibodies; type: cell-based; settings: anti-IN, versus wt virus treated with DMSO
# [9] = system: HIV-1 NL4-3; experiment: CA p24 titration of NL4-3 virus produced by 293T cells in the presence of compound; type: cell-based; settings: 1 μM compound in 0.5% DMSO, 48 hours; untreated virus 19.6 μg/ml
# Protocol: The assay shown in FIG. 6 measures the concentration of whole virus particles (p24 ng/ml on the Y axis) captured on plates coated with various anti-HIV antibodies at three different concentrations as indicated in the X axis. […] As indicated, two different dilutions of each of these virus preparations were incubated in the antibody-coated plates with the indicated antibodies, for 1 hour. Unbound virions were removed by washing. Virions captured by the indicated antibodies were lysed and quantitated by p24 assay by ELISA (Innogenetics/Ingen, Ghent Belgium). The anti-HIV antibodies used were a neutralizing polyclonal IgG F6 Gri/Ii, an irrelevant IgG F6 Neg (negative control), two monoclonal anti-HIV Env antibodies, 2G12 (neutralizing) and 4B3 (non-neutralizing), and an irrelevant monoclonal antibody (Synagis) as negative control.
# as §3
Structure (SMILES),infectivity / cytopathic effect of viruses produced in the presence of compound [1],infectivity of viruses produced in the presence of compound [2],amount of p24 produced ([4]; versus DMSO),perturbation of Gag maturation and CA p24 content [5],inactivation of NL4-3 virus produced in the presence of compound [6],further results
Cc1nc2cc(-c3cccnc3)ccc2c(-c2ccc3c(c2)CCCO3)c1C(OC(C)(C)C)C(=O)O (stereo not drawn) [MUT145212],totally impaired for such cytopathic effect,non-infectious,comparable to that in the presence of DMSO,could not detect any perturbation of Gag maturation and CA p24 content,–,MW at which HIV-1 integrase is eluted (IN tetramer) [3]: 130 KD MW
Cc1nc2c(-c3cccc(C(N)=O)c3)cccc2c(-c2ccc3c(c2)CCCO3)c1C(OC(C)(C)C)C(=O)O (stereo not drawn) [MUT145227],totally impaired for such cytopathic effect,non-infectious,comparable to that in the presence of DMSO,could not detect any perturbation of Gag maturation and CA p24 content,–,–
Cc1nc2cc(C(N)=O)ccc2c(-c2ccc3c(c2)CCCO3)c1C(OC(C)(C)C)C(=O)O (stereo not drawn) [MUT145240],–,–,–,–,–,MW at which HIV-1 integrase is eluted (IN tetramer) [3]: 130 KD MW
Cc1nc2c(c(-c3ccc4c(c3)CCCO4)c1C(OC(C)(C)C)C(=O)O)CCCC2 (stereo not drawn) [MUT145509],totally impaired for such cytopathic effect,non-infectious,comparable to that in the presence of DMSO,could not detect any perturbation of Gag maturation and CA p24 content,inactivated,–
Cc1sc(-c2ccncc2)c(C2=CCC(C)(C)CC2)c1[C@H](OC(C)(C)C)C(=O)O [MUT148237],–,–,–,–,inactivated,"excess of inactivated virus over untreated virus needed to infect 100,000 cells [7]: more than 10,000 times; extent of virus inactivation [7]: > 99.99%; amount of p24 of virus supernatant needed for infection of 50% of MT4 cells ([7]; untreated virus 0.11 pg): 5,139 pg; protein content and maturation profile of treated virus [8]: protein content and maturation profile identical to wt virus; also recorded: exactly the same profile, with normal protein content and protein maturation than fully infectious virus; CA p24 titer of virus inactivated during production [9]: 17.6 µg/mL"
"Cc1nnc(C(=O)NC(C)(C)c2nc(C(=O)NCc3ccc(F)cc3)c(O)c(=O)n2C)o1 [Raltegravir, reference compound]",fully infectious,comparable to viruses produced in the presence of DMSO,–,–,no effect,–
"CC(C)(C)NC(=O)[C@@H]1C[C@@H]2CCCC[C@@H]2CN1C[C@@H](O)[C@H](Cc1ccccc1)NC(=O)[C@H](CC(N)=O)NC(=O)c1ccc2ccccc2n1 [Saquinavir, reference compound]",totally impaired for such cytopathic effect,non infectious,–,–,inactivated,protein content and maturation profile of treated virus [8]: strong defect in maturation; protein content and maturation profile of treated virus ([8]; listed as saquinavir): strong defect in maturation and absence of RT and IN mature proteins; amount of p24 produced [4]: 30%
